In ChEMBL document CHEMBL3525934 (Drug Metab Dispos, 2013):

Tests used:
Format in all cases: ADME
[1] = tested on: Liver microsome; assay: Drug level in pooled human liver microsomes treated with clozapine at 100 uM after 30 mins by HPLC analysis; settings: 0.5 h
[2] = substrate: CN1CCN(C2=Nc3cc(Cl)ccc3Nc3ccccc32)CC1; assay: Drug metabolism in supersomes expressing human recombinant CYP2D6 assessed as enzyme-mediated N-demethyl clozapine metabolite formation after 15 mins by Michaelis-Menten equation analysis
[3] = substrate: CN1CCN(C2=Nc3cc(Cl)ccc3Nc3ccccc32)CC1; assay: Drug metabolism in supersomes expressing human recombinant CYP2D6 assessed as enzyme-mediated clozapine N-oxide metabolite formation after 15 mins by Michaelis-Menten equation analysis
[4] = substrate: CN1CCN(C2=Nc3cc(Cl)ccc3Nc3ccccc32)CC1; assay: Drug metabolism in supersomes expressing human recombinant CYP2D6 assessed as enzyme-mediated total GSH conjugate formation after 15 mins by Michaelis-Menten equation analysis

Row | Molecule | Drug metabolism [1] | other results
1 | CN1CCN(C2=Nc3c(ccc(Cl)c3O)Nc3ccccc32)CC1 | metabolite_detected | –
2 | Clc1ccc2c(c1)N=C(N1CCNCC1)c1ccccc1N2 [N-DESMETHYLCLOZAPINE] | metabolite_detected | –
3 | C[N+]1([O-])CCN(C2=Nc3cc(Cl)ccc3Nc3ccccc32)CC1 | metabolite_detected | –
4 | CNCCNC1=Nc2cc(Cl)ccc2Nc2ccccc21 | metabolite_detected | –
5 | NCCNC1=Nc2cc(Cl)ccc2Nc2ccccc21 | metabolite_detected | –
6 | CN1CCN(C2=Nc3cc(Cl)c(O)cc3Nc3ccccc32)CC1 | metabolite_detected | –
7 | Cytochrome P450 2D6 (Homo sapiens) (protein) MGLEALVPLAVIVAIFLLLVDLMHRRQRWAARYPPGPLPLPGLGNLLHVDFQNTPYCFDQLRRRFGDVFSLQLAWTPVVVLNGLAAVREALVTHGEDTADRPPVPITQILGFGPRSQGVFLARYGPAWREQRRFSVSTLRNLGLGKKSLEQWVTEEAACLCAAFANHSGRPFRPNGLLDKAVSNVIASLTCGRRFEYDDPRFLRLLDLAQEGLKEESGFLREVLNAVPVLLHIPALAGKVLRFQKAFLTQLDELLTEHRMTWDPAQPPRDLTEAFLAEMEKAKGNPESSFNDENLRIVVADLFSAGMVTTSTTLAWGLLLMILHPDVQRRVQQEIDDVIGQVRRPEMGDQAHMPYTTAVIHEVQRFGDIVPLGVTHMTSRDIEVQGFRIPKGTTLITNLSSVLKDEAVWEKPFRFHPEHFLDAQGHFVKPEAFLPFSAGRRACLGEPLARMELFLFFTSLLQHFSFSVPTGQPRPSHHGVFAFLVSPSPYELCAVPR | – | Km [2]: 25.3 µM; Km [3]: 84.1 µM; Km [4]: 21.9 µM
